In patent publication US7763616B2, “Piperazine-piperidines with CXCR3 antagonist activity” (Schering Corporation, priority 2005, dated 2010):
Read-outs that look alike come from different tables or passages of the source.

Biological target: T1, human CXCR3 (N-delta 4) (Homo sapiens, UniProt P49682)
T1 construct: CD8 leader (N); Flag tag; expressed in transfected cells; membrane preparation
T1 sequence (P49682 5-368 limits assumed): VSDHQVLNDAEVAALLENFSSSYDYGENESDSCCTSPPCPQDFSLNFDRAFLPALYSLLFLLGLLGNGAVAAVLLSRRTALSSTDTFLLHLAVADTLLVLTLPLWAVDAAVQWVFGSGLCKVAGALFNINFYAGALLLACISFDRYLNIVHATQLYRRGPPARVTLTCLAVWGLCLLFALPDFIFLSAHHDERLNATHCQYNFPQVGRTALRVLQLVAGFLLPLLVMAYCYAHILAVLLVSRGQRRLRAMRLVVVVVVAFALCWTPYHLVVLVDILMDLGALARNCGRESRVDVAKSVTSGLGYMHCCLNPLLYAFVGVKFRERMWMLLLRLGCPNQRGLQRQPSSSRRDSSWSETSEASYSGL
Test: Human CXCR3 (N-delta 4) Scintillation Proximity Assay (SPA), [125I] IP-10 binding
Conditions: Ba/F3-hCXCR3 (N-delta 4) membranes, 25 pM [125I] IP-10
Excerpt: The inventive compounds can readily be evaluated to determine activity at the CXCR3 receptors by known methods, such as, for example, development of a human CXCR3 (N-delta 4) Binding Assay.
Cloning and Expression of Human CXCR3 (N-delta 4):
The DNA encoding human CXCR3 was cloned by PCR using human genomic DNA (Promega, Madison, Wis.) as a template. The PCR primers were designed based on the published sequence of human orphan receptor GPR9 (1) with incorporated restriction sites, a Kozak consensus sequence, CD8 leader and Flag tag. The PCR product was subcloned into the mammalian expression vector pME18Sneo, a derivative of the SR-alpha expression vector (designated as pME18Sneo-hCXCR3 (N-delta 4).
IL-3-dependent mouse pro-B cells Ba/F3 were transfected by electroporation in 0.4 ml Dulbecco's PBS containing 4×10^6 cells with 20 μg of pME18Sneo-hCXCR3 (N-delta 4) plasmid DNA. Cells were pulsed at 400 Volts, 100 OHMs, […]. The transfected cells were under selection with 1 mg/ml G418 (Life Technologies, Gaithersburg, Md.). G418-resistant Ba/F3 clones were screened for CXCR3 expression by specific binding of [^125I] IP10 (NEN Life Science Products, Boston, Mass.).
Preparation of Ba/F3-hCXCR3 (N-delta 4) Membranes:
Ba/F3 cells expressing human CXCR3 (N-delta 4) were pelleted and resuspended in the lysis buffer containing 10 mM HEPES, pH 7.5 and Complete® protease inhibitors (1 tablet per 100 ml) (Boehringer Mannheim, Indianapolis, Ind.) at a cell density of 20×10^6 cells per ml. After 5 minute incubation on ice, cells were transferred to 4639 cell disruption bomb (Parr Instrument, Moline, Ill.) and applied with 1,500 psi of nitrogen for 30 minutes on ice. Large cellular debris was removed by centrifugation at 1,000×g. Cell membrane in the supernatant was sedimented at 100,000×g. The membrane was resuspended in the lysis buffer supplemented with 10% sucrose and stored at −80° C. Total protein concentration of the membrane was determined by BCA method from Pierce (Rockford, Ill.).
Human CXCR3 (N-delta 4) Scintillation Proximity Assay (SPA):
For each assay point, 2 μg of membrane was preincubated for 1 hr with 300 μg wheat germ agglutinin (WGA) coated SPA beads (Amersham, Arlington Heights, Ill.) in the binding buffer (50 mM HEPES, 1 mM CaCl2, 5 mM MgCl2, 125 mM NaCl, 0.002% NaN3, 1.0% BSA) at room temperature. The beads were spun down, washed once, resuspended in the binding buffer and transferred to a 96-well Isoplate (Wallac, Gaithersburg, Md.). 25 pM of [^125I] IP-10 with tested compounds in a series of titration were added to start the reaction. After 3 hr reaction at room temperature, the amount of [^125I] IP10 bound to the SPA beads was determined with a Wallac 1450 Microbeta counter.

IC50 (IC50 ratings, read-out: IC50) [nM]	IC50 (read-out: IC50 value) [nM]	SMILES
25 to 100		CC[C@H]1CN(c2nc3[nH]c(=O)[nH]c3nc2Cl)CCN1C1CCN(C(=O)c2ccc(Cl)cc2)CC1 [Compound 19]
25 to 100		CC[C@H]1CN(c2cc3[nH]c(=O)[nH]c3cc2Cl)CCN1C1CCN(Cc2ccc(Cl)cc2F)CC1 [Compound 21]
< 25		CC[C@H]1CN(c2cc3[nH]c(C(F)(F)F)nc3cc2Cl)CCN1C1CCN(Cc2ccc(Cl)cc2F)CC1 [Compound 9]
< 25		CC[C@H]1CN(c2nc3[nH]c(=O)n(C)c(=O)c3nc2Cl)CCN1C1CCN(Cc2ccc(Cl)cc2)CC1 [Compound 7]
< 25		CC[C@H]1CN(c2nc3[nH]c(=O)[nH]c3nc2Cl)CCN1C1CCN(C(=O)c2ccc(Cl)nc2N)CC1 [Compound 12]
25 to 100		CC[C@H]1CN(c2nc3nc(C)n(CC)c(=O)c3nc2Cl)CCN1C1CCN(Cc2ccc(Cl)cc2F)CC1 [Compound 23]
< 25		CC[C@H]1CN(c2nc3[nH]c(=O)[nH]c3nc2Cl)CCN1C1CCN([C@H](CO)c2ccc(Cl)cc2)CC1 [Compound 11]
> 100		CCNC(=O)n1cnc2cc(Cl)c(N3CCN(C4CCN(Cc5ccc(Cl)cc5F)CC4)[C@@H](CC)C3)cc21 [Compound 31]
< 25		CC[C@H]1CN(c2nc3[nH]c(=O)[nH]c3nc2Cl)CCN1C1CCN([C@@H](CO)c2ccc(Cl)cc2)CC1 [Compound 3]
< 25		CC[C@H]1CN(c2nc3[nH]c(=O)[nH]c3nc2Cl)CCN1C1CCN(Cc2ccc(Cl)cc2C#N)CC1 [Compound 13]
> 100		CC[C@H]1CN(c2cc3[nH]c(-c4ccccc4)nc3cc2Cl)CCN1C1CCN(Cc2ccc(Cl)cc2F)CC1 [Compound 32]
> 100		CC[C@H]1CN(c2cc3[nH]cnc3cc2Cl)CCN1C1CCN(Cc2ccc(Cl)cc2F)CC1 [Compound 25]
> 100		CCc1nc2nc(N3CCN(C4CCN(Cc5ccc(Cl)cc5F)CC4)[C@@H](CC)C3)c(O)nc2c(=O)n1CC [Compound 38]
> 100		CC[C@H]1CN(c2cc3c(cc2Cl)nc(NS(C)(=O)=O)n3S(C)(=O)=O)CCN1C1CCN(Cc2ccc(Cl)cc2F)CC1 [Compound 35]
> 100		CC[C@H]1CN(c2cc3c(cc2Cl)nc(C(F)(F)F)n3C)CCN1C1CCN(Cc2ccc(Cl)cc2F)CC1 [Compound 37]
25 to 100		CC[C@H]1CN(c2nc3c(nc2Cl)[nH]c(=O)n3Cc2ccc(Cl)cc2C#N)CCN1C1CCN(Cc2ccc(Cl)cc2C#N)CC1 [Compound 22]
< 25		CC[C@H]1CN(c2nc3c(nc2Cl)CN/C(=N\C#N)N3)CCN1C1CCN(Cc2ccc(Cl)cc2F)CC1 [Compound 5]

IC50 (IC50 ratings, read-out: IC50) [nM]	IC50 (read-out: IC50 value) [nM]	SMILES
< 25		CC[C@H]1CN(c2nc3[nH]c(=O)[nH]c3nc2Cl)CCN1C1CCN(Cc2ccc(Cl)cc2F)CC1 [Compound 6]
> 100		CC[C@H]1CN(c2cc3[nH]c(=O)c(=O)[nH]c3cc2Cl)CCN1C1CCN(Cc2ccc(Cl)cc2F)CC1 [Compound 29]
< 25		CCc1nc2nc(N3CCN(C4CCN(Cc5ccc(Cl)cc5F)CC4)[C@@H](CC)C3)c(Cl)nc2c(=O)n1CC [Compound 15]
< 25		CC[C@H]1CN(c2nc3[nH]c(=O)n(C(=O)OC(C)(C)C)c3nc2Cl)CCN1C1CCN(Cc2ccc(Cl)cc2)CC1 [Compound 8]
> 100		CC[C@H]1CN(c2cc3[nH]c(=S)[nH]c3cc2Cl)CCN1C1CCN(Cc2ccc(Cl)cc2F)CC1 [Compound 28]
< 25		CC[C@H]1CN(c2nc3c(nc2Cl)CNC(=O)N3)CCN1C1CCN(C(=O)c2ccc(Cl)nc2N)CC1 [Compound 16]
< 25		CC[C@H]1CN(c2nc3c(nc2Cl)CNC(=O)N3)CCN1C1CCN(Cc2ccc(Cl)cc2F)CC1 [Compound 4]
25 to 100		CC[C@H]1CN(c2cc3[nH]cnc3cc2Cl)CCN1C1CCN(Cc2ccc(Cl)cc2F)CC1 [Compound 24]
< 25		CC[C@H]1CN(c2nc3[nH]c(=O)[nH]c3nc2Cl)CCN1C1CCN(Cc2ccc(Cl)cc2)CC1 [Compound 2]
< 25		CC[C@H]1CN(c2nc3[nH]c(=O)[nH]c3nc2Cl)CCN1C1CCN(Cc2ccc(-n3cccn3)cc2)CC1 [Compound 17]
> 100		CC[C@H]1CN(c2nc3[nH]c(=O)[nH]c3nc2Cl)CCN1C1CCN([C@H](C(=O)OC)c2ccc(Cl)cc2)CC1 [Compound 30]
25 to 100		CC[C@H]1CN(c2nc3c(nc2Cl)C(=O)NCCN3)CCN1C1CCN(C(=O)c2ccc(Cl)nc2N)CC1 [Compound 18]
25 to 100		CC[C@H]1CN(c2nc3ncn(CC)c(=O)c3nc2Cl)CCN1C1CCN(Cc2ccc(Cl)cc2)CC1 [Compound 20]
> 100		CC[C@H]1CN(c2nc3c(nc2Cl)C(=O)NCCNC(=O)N3)CCN1C1CCN(C(=O)c2ccc(Cl)nc2N)CC1 [Compound 34]
< 25	0.3	CC[C@H]1CN(c2nc3c(nc2Cl)CNc2c(c(=O)c2=O)N3)CCN1C1CCN(Cc2ccc(Cl)cc2F)CC1 [Compound 1]
> 100		CC[C@H]1CN(c2nc3[nH]c(=O)[nH]c3nc2Cl)CCN1C1CCN(C(C#N)c2ccc(Cl)cc2)CC1 (mixture of isomers) [Compound 33]
> 100		CC[C@H]1CN(c2nc3[nH]c(=O)n(Cc4ccc(Cl)cc4C#N)c3nc2Cl)CCN1C1CCN(Cc2ccc(Cl)cc2C#N)CC1 [Compound 26]
